Structures can show the parent of a compound that is named as a salt.
Target: Na/K-ATPase
Assay: 3H-ouabain radioligand binding assay (RBA)
Conditions: for IC50: 3H-ouabain radioligand binding assay (RBA)
Text: The potency of steroids to displace the labelled cardiac glycoside (i.e. ouabain) in the assay parallel their biological activity, that is their cardiac glycoside-like activity, in their ability to inhibit Na/K-ATPase and elicit characteristic cellular response.

Row | Structure (SMILES) | IC50 [nM] | IC50 (unit printed 'nm') [nM] | potency compared with Example 1 and Example 4 (comparison of IC50 values, in words)
1 | C[C@@H]1O[C@@H](O[C@H]2CC[C@@]3(C)[C@H](CC[C@@H]4[C@@H]3CC[C@]3(C)[C@@H](CN)CC[C@]43O)C2)[C@H](O)[C@H](O)[C@H]1O [Example 1, 14-Hydroxy-3β-(α-L-rhamnopyranosyl)oxy-20-amino-21-nor-5β14β-pregnane hydrochloride] | 60 | 60 | 
2 | C[C@@H]1O[C@@H](O[C@H]2CC[C@@]3(C)[C@H](CC[C@@H]4[C@@H]3CC[C@]3(C)[C@@H](C[N+](=O)[O-])CC[C@]43O)C2)[C@H](O)[C@H](O)[C@H]1O [Example 2, 14-Hydroxy-3β-(α-L-rhamnopyranosyl)oxy-20-nitro-21-nor-5β,14β-pregnane] | 11 | 11 | significantly greater than exhibited by the corresponding amino derivative (Example 1) and tridigitoxosyl derivative (Example 4)
3 | CC1OC(OC2C(O)CC(OC3C(O)CC(OC4CCC5(C)C(CCC6C5CCC5(C)C(CN)CCC65O)C4)OC3C)OC2C)CC(O)C1O [Example 3, 14-Hydroxy-3β-(tris-β-D-digitoxosyl)oxy-20-amine-21-nor-5β,14β-pregnane] | 400 |  | 
4 | CC1OC(OC2C(O)CC(OC3C(O)CC(OC4CCC5(C)C(CCC6C5CCC5(C)C(C[N+](=O)[O-])CCC65O)C4)OC3C)OC2C)CC(O)C1O [Example 4, 14-Hydroxy-3 β-(tris-β-D-digitoxosyl)oxy-20-nitro-21-nor-5β,14β-pregnane] | 60 |  | 

Reference: US5270457A, “Cardiac steriod glycosides” (University of Manitoba, priority 1992, dated 1993)
